This passage reports Km results from PMC7726675 (Data in Brief, 2020).

What is called Km is the concentration of substrate that gives half-maximal velocity.

The assay has as its system AAR^CAp. Conditions: read-out: KM^AcAcCoA; NADH fixed at 300 µM; 50 mM Tris pH 8, 5 mM MgCl2, 5 mM NaCl; 30 °C.

Molecules are shown by their SMILES.

With `CC(=O)CC(=O)SCCNC(=O)CCNC(=O)[C@H](O)C(C)(C)COP(=O)(O)OP(=O)(O)OC[C@H]1O[C@@H](n2cnc3c(N)ncnc32)[C@H](O)[C@@H]1OP(=O)(O)O` [acetoacetyl-CoA], the Km worked out at 56.7 µM.
